Assay in all cases: competitive isoTOP-ABPP
What all share (type): binding

Assay [1] deals with T1, MRPL12 39S ribosomal protein L12, mitochondrial (Homo sapiens, UniProt P52815).
T1 construct: isoTOP-ABPP experiments performed in cell lysates (in vitro); endogenous in cells; host or cells: soluble proteome of human cancer cell lines (MDA-MB-231, Ramos, Jurkat)
Conditions: for isoTOP-ABPP ratio (R) at liganded lysine P52815_K87: sol, 231; for isoTOP-ABPP ratio, lysine P52815_K87: 50 uM_231_sol_in vitro, possible other lysine B4DLN1_K87, P52815_K91. A digest of the protocol: (§1)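 Here, isoTOP-ABPP measures loss of STP-alkyne labeling at individual lysines after fragment exposure in lysate. Activated esters are dosed at 50 μM, guanidinylating agents at 100 μM; the probe follows at 0.1 mM for 1 h. R ≥4 marks a liganded lysine.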

The target in assay [2] is T2, AKR1C3 Aldo-keto reductase family 1 member C3 (Homo sapiens, UniProt P42330).
T2 construct: isoTOP-ABPP experiments performed in cell lysates (in vitro); endogenous in cells; host or cells: soluble proteome of human cancer cell lines (MDA-MB-231; Ramos and Jurkat also prepared)
T2 sequence (P42330 1-323): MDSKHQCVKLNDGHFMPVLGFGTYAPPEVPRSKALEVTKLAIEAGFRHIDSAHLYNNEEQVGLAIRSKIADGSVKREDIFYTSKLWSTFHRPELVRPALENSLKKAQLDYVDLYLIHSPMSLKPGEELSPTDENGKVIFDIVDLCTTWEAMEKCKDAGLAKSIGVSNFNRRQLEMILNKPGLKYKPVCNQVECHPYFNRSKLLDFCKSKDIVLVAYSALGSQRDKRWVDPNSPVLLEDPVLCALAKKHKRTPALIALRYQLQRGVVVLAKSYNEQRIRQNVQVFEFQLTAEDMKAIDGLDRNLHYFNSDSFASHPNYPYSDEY
The note with it: for isoTOP-ABPP ratio (R) at liganded lysine P42330_K270: sol, 231; for isoTOP-ABPP ratio, lysine P42330_K270: 50 uM_231_sol_in vitro, possible other lysine P52895_K270, P17516_K270, Q04828_K270. A digest of the protocol:
as §1

Assay [3] addresses T3, FH Fumarate hydratase, mitochondrial (Homo sapiens, UniProt P07954).
T3 construct: isoTOP-ABPP experiments performed in cell lysates (in vitro); endogenous in cells; host or cells: MDA-MB-231 soluble lysate
T3 sequence (P07954 45-510): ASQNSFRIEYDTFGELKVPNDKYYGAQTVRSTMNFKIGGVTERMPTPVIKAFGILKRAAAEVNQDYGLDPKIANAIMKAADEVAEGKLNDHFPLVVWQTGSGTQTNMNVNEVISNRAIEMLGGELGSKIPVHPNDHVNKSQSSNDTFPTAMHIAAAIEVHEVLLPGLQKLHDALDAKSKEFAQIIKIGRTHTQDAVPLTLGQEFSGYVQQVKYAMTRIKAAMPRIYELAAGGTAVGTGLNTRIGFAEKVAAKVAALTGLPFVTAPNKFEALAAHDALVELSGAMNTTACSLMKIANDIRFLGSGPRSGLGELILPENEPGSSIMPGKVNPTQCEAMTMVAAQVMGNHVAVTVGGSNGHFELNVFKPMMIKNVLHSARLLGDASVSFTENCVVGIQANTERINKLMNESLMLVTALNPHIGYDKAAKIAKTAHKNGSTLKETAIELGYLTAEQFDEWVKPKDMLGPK
Conditions: for isoTOP-ABPP ratio (R) at liganded lysine P07954_K311: sol, 231; for isoTOP-ABPP ratio, lysine P07954_K311: 50 uM_231_sol_in vitro. A digest of the protocol: as §1

The target of assay [4] is T4, TTR Transthyretin (Homo sapiens, UniProt P02766).
T4 construct: isoTOP-ABPP experiments performed in cell lysates (in vitro); endogenous in cells; host or cells: MDA-MB-231 soluble lysate
The note with it: for isoTOP-ABPP ratio (R) at liganded lysine P02766_K35: sol, 231; for isoTOP-ABPP ratio, lysine P02766_K35: 50 uM_231_sol_in vitro. A digest of the protocol:
as §1

Consider `COc1cc(CCC(=O)Oc2ccc([N+](=O)[O-])cc2[N+](=O)[O-])cc(OC)c1OC` [fragment 33, 2,4-Dinitrophenyl 3-(3,4,5-trimethoxyphenyl)propanoate], for which the “isoTOP-ABPP reactivity ratio at lysine P52815_K87” value in assay [1] (50 uM, 231 sol, in vitro) is 2.1. In addition, the “isoTOP-ABPP reactivity ratio at lysine P42330_K270” value in assay [2] (50 uM, 231 sol, in vitro) came to 1.0. Also, in assay [3] (50 uM, 231 sol, in vitro), the “isoTOP-ABPP reactivity ratio at lysine P07954_K311” value came out at 2.2. In assay [4] (50 uM, 231 sol, in vitro), the “isoTOP-ABPP reactivity ratio at lysine P02766_K35” value was 2.7.
For `O=C(Oc1ccc([N+](=O)[O-])cc1[N+](=O)[O-])c1ccc(Oc2ccccc2)cc1` [fragment 39, 2,4-Dinitrophenyl 4-phenoxybenzoate], the “isoTOP-ABPP ratio (R) at liganded lysine P52815_K87” value in assay [1] (50 uM, in vitro) is on record as 1.1. The “isoTOP-ABPP ratio (R) at liganded lysine P42330_K270” value in assay [2] (50 uM, in vitro) worked out at 0.8. For the same compound, the “isoTOP-ABPP ratio (R) at liganded lysine P07954_K311” value in assay [3] (50 uM, in vitro) is listed as 0.9. In assay [4] (50 uM, in vitro), the “isoTOP-ABPP ratio (R) at liganded lysine P02766_K35” value turned out to be 2.2.
In the same order, the values of `CC(C)(C)OC(=O)NCCCC(=O)Oc1ccc([N+](=O)[O-])cc1[N+](=O)[O-]` [fragment 41, 2,4-Dinitrophenyl 4-((tert-butoxycarbonyl)amino)butanoate] are 4.1, 0.7, 1.0 and 3.4.
On to `O=C(CCc1ccc2c(c1)OCO2)Oc1ccc([N+](=O)[O-])cc1[N+](=O)[O-]` [fragment 45, 2,4-Dinitrophenyl 3-(benzo[d][1,3]dioxol-5-yl)propanoate], for which, in assay [1], the “isoTOP-ABPP ratio, lysine P52815_K87” value was 1.8. Besides, the “isoTOP-ABPP ratio, lysine P42330_K270” value in assay [2] is 0.8. In addition, the “isoTOP-ABPP ratio, lysine P07954_K311” value in assay [3] turned out to be 1.8. The “isoTOP-ABPP ratio, lysine P02766_K35” value in assay [4] came out at 2.5.
Take `O=C(Oc1c(F)c(F)c(C(F)(F)F)c(F)c1F)c1cc(C(F)(F)F)cc(C(F)(F)F)c1` [fragment 47, 2,3,5,6-Tetrafluoro-4-(trifluoromethyl)phenyl 3,5-bis(trifluoromethyl)benzoate]: the “isoTOP-ABPP ratio, lysine P52815_K87” value in assay [1] came to 1.1. The “isoTOP-ABPP ratio, lysine P42330_K270” value in assay [2] worked out at 2.5. The “isoTOP-ABPP ratio, lysine P07954_K311” value in assay [3] came to 1.4. Further, the “isoTOP-ABPP ratio, lysine P02766_K35” value in assay [4] amounted to 1.6.

The values above are taken from patent US20210255193A1, “LYSINE REACTIVE PROBES AND USES THEREOF” (The Scripps Research Institute, priority 2017, published 2021).
